Test results as given in US8217074B2, “Use of sargachromenol” (Catholic University Industry Academic Cooperation Foundation, priority 2007, dated 2012).

Legend:
[1] = system: human keratinocytes HaCaT; test: Apoptosis by TUNEL analysis; type: cell-based; conditions: increasing concentration, 24 hours
Experimental: For TUNEL analysis, the cells were incubated for 24 hours as above, and transferred to a chamber slide using an ApopTag® fluorescein in situ apoptosis detection kit. After adhering the cells to the bottom well, they were washed with pH 7.4 PBS solution. The chamber slide was immersed in PBS solution of 4% paraformaldehyde for 30 minutes at room temperature in order to completely fix the cells. And, the cells were washed with PBS and immersed in blocking solution (1% H2O2 in methanol) for 30 minutes at room temperature in order to inhibit the action of endogenous peroxidase. Then, the cells were washed with PBS and immersed in 0.1% sodium citrate solution containing 0.1% Triton X-100 at 4° C. for 2 minutes in order to make the cells permeable. For labeling, the cells were washed with PBS two more times and diluted TUNEL reaction mixture was added to the slide. After incubating in a 37° C. humidified chamber for 60 minutes, the slide was washed with PBS. Then, the slide was further incubated in TBS solution containing 1% BSA and 5% FBS for 20 minutes. After adding anti-fluorescein antibody conjugated with horse-radish peroxidase to the culture medium and reacting at 37° C. for 1 hour, the slide was washed with PBS and DAB-matrix solution was added. Hematoxylin solution was added for counter staining. […]

[2] = Cytotoxicity analysis by MTT cell viability assay; type: cell-based, human; conditions: human, HaCaT keratinocytes
Experimental: (§1) Cytotoxicity effect of the sargachromenol of the present invention isolated and purified in Example 1 on human keratinocytes HaCaT was investigated by MTT cell viability analysis.
(§2) HaCaT cells were obtained from Professor N. Fusenig of the German Cancer Research Institute. The HaCaT cells were incubated in DMEM medium containing 10% FBS (Hyclone), 100 unit/mL penicillin and 100 μg/mL streptomycin at 37° C., in a 5% CO2 incubator. During the incubation, cell viability and number of cells were measured periodically using a hemacytometer (Neubauer, Germany) by the trypan blue exclusion method. In all experiments, initial cell viability was maintained over 95%.
(§3) The cultured HaCaT cells were transferred to a 96-well plate, with 5×10^4 cells/well, and incubated at 37° C. in a 5% CO2 incubator for 24 hours. Then, the cultured HaCaT cells were treated with 0, 1, 2, 5 or 10 μg/mL sargachromenol, and further incubated at 37° C. in a 5% CO2 incubator for 24 hours. Then, without removing the medium, each well was treated with 5 mg/mL MTT reagent at a concentration of 20 μL/100 μL, and incubated for 2 hours. Subsequently, after removing the medium, 150 μL of DMSO was added to each well and cell viability was analyzed by measuring absorbance at 540 nm using an ELISA reader (Molecular Devices, USA). Cells non-treated with sargachromenol were used as control group. Cell viability was calculated as relative value of that of the control group (100%).

[3] = system: human keratinocytes HaCaT; test: Cytotoxicity analysis by MTT cell viability assay; type: cell-based; conditions: 0, 1, 2, 5 or 10 μg/mL, 24 hours
Experimental: as §1, §2, §3

[4] = system: caspase-8, caspase-9 and caspase-3 in human keratinocytes HaCaT; test: Western blot of apoptosis-related factors after pre-treatment and UVB irradiation; type: cell-based
Experimental: In Example 4, it was confirmed that UV further enhances the apoptosis of human keratinocytes by sargachromenol. Thus, it was investigated whether UV has effect on sargachromenol-induced apoptosis-related factors. First, human keratinocytes HaCaT cells were cultured in the same manner as in Example 2-1 and transferred to a 10 cm plate, at 2×10^6 cells/well. After about 18 hours of serum starvation, each well was pre-treated with 0, 2 or […] sargachromenol for 30 minutes and UVB was irradiated. 8 hours later, the cells were lysed using RIPA buffer [12 mM EDTA, 137 mM NaCl, 20 mM Tris-HCl (pH 8.0), 1 mM Na3VO4 (Sigma-Aldrich, USA) 10 mM NaF (Sigma), 1 mM PMSF (Sigma), 1% Triton X-100, 10% glycerol and protease inhibitor cocktail (Roche, Germany)]. Electrophoresis (SDS-PAGE) was carried out after determination of protein concentration. Western blot analysis was carried out on the isolated protein as in Example 3. Cells not treated with sargachromenol were used as control group.

[5] = system: UVB irradiated human keratinocytes HaCaT; test: MTT cell viability after sargachromenol pre-treatment and UVB irradiation; type: cell-based
Experimental: Synergic apoptosis effect by UV and sargachromenol on human keratinocytes was investigated. HaCaT cells were cultured in the same manner as in Example 2-1 and transferred to a 6-well plate, at 3×10^5 cells/well. After about 12 hours of serum starvation, each well was pre-treated with 0, 0.5, 1, 2, 5 or 10 μg/mL sargachromenol, and UVB was irradiated at 150 J/m^2 (FS24T12/UVB/HO, Voltare Co., Fairfield, Conn., USA, 290-320 nm). 18 hours later, without removing the medium, each well was treated with 5 mg/mL MTT reagent at a concentration of 20 μL/100 μL, and incubated for 2 hours. Subsequently, after removing the medium, 150 μL of DMSO was added to each well and cell viability was analyzed by measuring absorbance at 540 nm using a spectrophotometer. Cells non-treated with sargachromenol were used as control group. Cell viability was calculated as relative value of that of the control group (100%).

[6] = system: nerve cell; conditions: Chi Kwan Tsang et al, Neuroscience, 2005; cited from earlier work
[7] = system: human keratinocytes HaCaT; test: Apoptosis by FACS analysis (Propidium Iodide staining); type: cell-based; conditions: 24 hours
Experimental: Apoptosis effect of the sargachromenol of the present invention on human keratinocytes was investigated by FACS and TUNEL analysis. First, for FACS analysis, HaCaT cells were cultured in the same manner as in Example 2-1, transferred to a 10 cm plate, with 2×10^6 cells/well, and incubated at 37° C. in a 5% CO2 incubator for 24 hours. After treating the cells with 0, 1, 2 or 5 μg/mL sargachromenol, they were incubated at 37° C. in a 5% CO2 incubator for 24 hours. Then, the cells were released from the plate using trypsin, and fixed using 4% paraformaldehyde. The fixed cells were treated with 70% alcohol to increase cell membrane permeability. Then, the cells were stained with Propidium Iodide (PI) solution for 30 minutes, and subjected to FACS analysis. Cells treated with DMSO only and not with sargachromenol were used as control group.

[8] = system: caspase-8 and caspase-3 in human keratinocytes HaCaT; test: Western blot of apoptosis-related factors; type: cell-based
Experimental: Human keratinocytes HaCaT cells were cultured in the same manner as in Example 2-1 and transferred to a 10 cm plate, at 2×10^6 cells/well. After about 18 hours of serum starvation, the cells were treated with 0, 1, 2 or 5 μg/mL sargachromenol. 18 hours later, the cells were lysed using RIPA buffer [12 mM EDTA, 137 mM NaCl, 20 mM Tris-HCl (pH 8.0), 1 mM Na3VO4 (Sigma-Aldrich, USA) 10 mM NaF (Sigma), 1 mM PMSF (Sigma), 1% Triton X-100, 10% glycerol and protease inhibitor cocktail (Roche, Germany)]. The lysed cells were put in a 1.5 mL tube and, after pipetting, put on ice for 20 minutes. The lysate was centrifuged at 14000 rpm for 20 minutes, and protein was isolated from the supernatant. Sample concentration of the isolated protein was determined using a BCA protein analysis kit (Pierce, Rockford, Ill.) and electrophoresis (SDS-PAGE) was carried out. Western blot analysis was carried out on the protein isolated by the electrophoresis. Western blot analysis was carried out as follows. After electrophoresis of the sample, the protein was transferred from the gel to a polyvinylidene fluoride membrane (Pall Corporation). Then, after blocking the membrane at room temperature for 2 hours using 3% BSA solution (Amresco, USA), it was treated with primary antibodies and reaction was carried out at room temperature for 2 hours. The primary antibodies were anti-caspase-3 antibody, anti-caspase-8 antibody and anti-actin antibody (Cell Signaling Technology, Beverly, Mass.), which are antibodies associated in apoptosis-related signaling. After reaction with the primary antibodies, it was washed with TBS for about 15 minutes and further reacted for 45 minutes by treating with secondary antibodies. The secondary antibodies were goat anti-mouse antibody and goat anti-rabbit antibody (Zymed, San Francisco, USA). Then, after washing sufficiently with TBS for over 30 minutes, protein was identified using an ECL detection kit (Santa Cruz). Cells not treated with sargachromenol were used as control group.

CC(C)=CCC/C(=C/CC/C(C)=C/CCC1(C)C=Cc2cc(O)cc(C)c2O1)C(=O)O (centres unmarked) [sargachromenol]
number of TUNEL-positive (dead) cells [1]: increased as the concentration of the sargachromenol of the present invention increased | viability at 24 h, 5 μg/mL ([2]; 5 μg/mL sargachromenol only, without UV irradiation): ≥ 40% | cytotoxicity at 24 h, 5 μg/mL ([2]; 5 μg/mL sargachromenol, 24 hours, relative to control group (100%), no UV, read-out: reduction of cell viability): 40% | cell viability, concentration dependence [3]: cell viability decreased as the concentration of sargachromenol increased | activation of caspase ([4]; 2 or 5 μg/mL sargachromenol only, no UVB, 8 hours): activation of caspase was not observed | cleaved caspases ([4]; pre-treated with sargachromenol and irradiated with UVB, 8 hour later): cleaved caspase-8, caspase-9 and caspase-3 were observed | viability at 1 µg/mL ([5]; Homo sapiens, HaCaT, light or radiation study, 1 μg/mL pre-treatment, UVB 150 J/m^2, 18 hours later): ~25% | apoptosis versus cells without UV ([5]; pre-treated with sargachromenol and irradiated with UV, compared with same condition without UV): much more increased apoptosis | NGF (nerve growth factor)-dependent nerve cell growth promoting activity [6]: reported to have NGF (nerve growth factor)-dependent nerve cell growth promoting activity | apoptosis effect, concentration comparison (FACS) ([7]; 5 μg/mL versus 1 μg/mL): better at treatment with 5 μg/mL than 1 μg/mL | apoptosis effect versus control group (FACS) ([7]; 1, 2 or 5 μg/mL, control DMSO only): superior in the cells treated with sargachromenol than in the control group | cleavage of caspase-8 and caspase-3 ([8]; 0, 1, 2 or 5 μg/mL, higher concentration, no UV): caspase-8 and caspase-3 were cleaved | quantity of cleaved protein ([8]; 0, 1, 2 or 5 μg/mL, no UV): increased in a concentration-dependent manner | activation of caspase ([8]; 5 μg/mL sargachromenol only, 18 hours later): Activation of caspase was observed
